{"source": "paper PMC10981727", "about": "“Design, synthesis and bioactivity study on oxygen-heterocyclic-based pyran analogues as effective P-glycoprotein-mediated multidrug resistance in MCF-7/ADR cell” (Scientific Reports, 2024)", "origin": "cited, not measured here", "key": {"[1]": {"tested_on": "MCF-7", "design": "method as in PMID 31586716", "details": "Fig. 5, 9-Br first generation derivatives; cited from earlier work"}, "[2]": {"tested_on": "HCT-116", "design": "method as in PMID 31586716", "details": "Fig. 5, 9-Br first generation derivatives; cited from earlier work"}, "[3]": {"tested_on": "HepG-2", "design": "method as in PMID 31586716", "details": "Fig. 5, 9-Br first generation derivatives; cited from earlier work"}, "[4]": {"tested_on": "PC-3", "design": "method as in PMID 34670333", "details": "Fig. 5, 9-OMe second generation derivatives; cited from earlier work"}, "[5]": {"tested_on": "MIA PaCa-2", "design": "method as in PMID 34670333", "details": "Fig. 5, 9-OMe second generation derivatives; cited from earlier work"}, "[6]": {"tested_on": "HeLa", "design": "method as in PMID 34670333", "details": "Fig. 5, 9-OMe second generation derivatives; cited from earlier work"}, "[7]": {"tested_on": "MDA-MB-231", "design": "method as in PMID 34670333", "details": "Fig. 5, 9-OMe second generation derivatives; cited from earlier work"}, "[8]": {"tested_on": "RPMI 7951", "design": "method as in PMID 34670333", "details": "Fig. 5, 9-OMe second generation derivatives; cited from earlier work"}, "[9]": {"tested_on": "A549", "design": "method as in PMID 34670333", "details": "Fig. 5, 9-OMe second generation derivatives; cited from earlier work"}}, "note": "pIC50: −log10 of the molar value."}
{"molecule": "N#CC1=C(N)Oc2ccc3ccc(Br)cc3c2C1c1cccc(Cl)c1", "note": "(stereo not drawn) [compound 1]", "values": [{"measurement": "pIC50", "setting": "[1]", "value": 4.34}, {"measurement": "pIC50", "setting": "[2]", "value": 5.87}, {"measurement": "pIC50", "setting": "[3]", "value": 6.11}]}
{"molecule": "N#CC1=C(N)Oc2ccc3ccc(Br)cc3c2C1c1ccc(Cl)cc1", "note": "(stereo not drawn) [compound 2]", "values": [{"measurement": "pIC50", "setting": "[1]", "value": 5.02}, {"measurement": "pIC50", "setting": "[2]", "value": 6.10}, {"measurement": "pIC50", "setting": "[3]", "value": 5.78}]}
{"molecule": "N#CC1=C(N)Oc2ccc3ccc(Br)cc3c2C1c1cccc(Cl)c1Cl", "note": "(stereo not drawn) [compound 3]", "values": [{"measurement": "pIC50", "setting": "[1]", "value": 6.31}, {"measurement": "pIC50", "setting": "[2]", "value": 6.19}, {"measurement": "pIC50", "setting": "[3]", "value": 5.12}]}
{"molecule": "N#CC1=C(N)Oc2ccc3ccc(Br)cc3c2C1c1ccc(Cl)c(Cl)c1", "note": "(stereo not drawn) [compound 4]", "values": [{"measurement": "pIC50", "setting": "[1]", "value": 5.12}, {"measurement": "pIC50", "setting": "[2]", "value": 4.60}, {"measurement": "pIC50", "setting": "[3]", "value": 6.33}]}
{"molecule": "COc1c(Br)cc(Br)cc1C1C(C#N)=C(N)Oc2ccc3ccc(Br)cc3c21", "note": "(stereo not drawn) [compound 5]", "values": [{"measurement": "pIC50", "setting": "[1]", "value": 5.44}, {"measurement": "pIC50", "setting": "[2]", "value": 6.24}, {"measurement": "pIC50", "setting": "[3]", "value": 6.15}]}
{"molecule": "COc1ccc2ccc3c(c2c1)C(c1ccc(Br)cc1)C(C#N)=C(N)O3", "note": "(stereo not drawn) [compound 6]", "values": [{"measurement": "pIC50", "setting": "[4]", "value": 4.87}, {"measurement": "pIC50", "setting": "[5]", "value": 5.17}, {"measurement": "pIC50", "setting": "[6]", "value": 4.94}, {"measurement": "pIC50", "setting": "[7]", "value": 5.11}, {"measurement": "pIC50", "setting": "[8]", "value": 5.23}, {"measurement": "pIC50", "setting": "[9]", "value": 4.90}]}
{"molecule": "COc1ccc2ccc3c(c2c1)C(c1ccc(I)cc1)C(C#N)=C(N)O3", "note": "(stereo not drawn) [compound 7]", "values": [{"measurement": "pIC50", "setting": "[4]", "value": 4.89}, {"measurement": "pIC50", "setting": "[5]", "value": 5.21}, {"measurement": "pIC50", "setting": "[6]", "value": 4.92}, {"measurement": "pIC50", "setting": "[7]", "value": 5.05}, {"measurement": "pIC50", "setting": "[8]", "value": 5.19}, {"measurement": "pIC50", "setting": "[9]", "value": 4.88}]}
{"molecule": "COc1ccc2ccc3c(c2c1)C(c1ccc(Cl)cc1Cl)C(C#N)=C(N)O3", "note": "(stereo not drawn) [compound 8]", "values": [{"measurement": "pIC50", "setting": "[4]", "value": 5.06}, {"measurement": "pIC50", "setting": "[5]", "value": 5.22}, {"measurement": "pIC50", "setting": "[6]", "value": 5.12}, {"measurement": "pIC50", "setting": "[7]", "value": 5.15}, {"measurement": "pIC50", "setting": "[8]", "value": 5.28}, {"measurement": "pIC50", "setting": "[9]", "value": 5.17}]}
{"molecule": "COc1ccc2ccc3c(c2c1)C(c1cc(Cl)ccc1Cl)C(C#N)=C(N)O3", "note": "(stereo not drawn) [compound 9]", "values": [{"measurement": "pIC50", "setting": "[4]", "value": 4.94}, {"measurement": "pIC50", "setting": "[5]", "value": 5.17}, {"measurement": "pIC50", "setting": "[6]", "value": 4.88}, {"measurement": "pIC50", "setting": "[7]", "value": 5.09}, {"measurement": "pIC50", "setting": "[8]", "value": 5.24}, {"measurement": "pIC50", "setting": "[9]", "value": 5.07}]}
{"molecule": "COc1ccc2ccc3c(c2c1)C(c1ccc(Cl)c(Cl)c1)C(C#N)=C(N)O3", "note": "(stereo not drawn) [compound 10]", "values": [{"measurement": "pIC50", "setting": "[4]", "value": 4.84}, {"measurement": "pIC50", "setting": "[5]", "value": 5.21}, {"measurement": "pIC50", "setting": "[6]", "value": 4.89}, {"measurement": "pIC50", "setting": "[7]", "value": 5.08}, {"measurement": "pIC50", "setting": "[8]", "value": 5.29}, {"measurement": "pIC50", "setting": "[9]", "value": 4.87}]}
